Patent US20240226115A1, “AXL INHIBITOR COMPOUNDS” (ARCUS BIOSCIENCES, INC., priority 2021, published 2024)

Molecular target: T1, Axl (Homo sapiens, UniProt P30530)
T1 sequence (P30530 26-894): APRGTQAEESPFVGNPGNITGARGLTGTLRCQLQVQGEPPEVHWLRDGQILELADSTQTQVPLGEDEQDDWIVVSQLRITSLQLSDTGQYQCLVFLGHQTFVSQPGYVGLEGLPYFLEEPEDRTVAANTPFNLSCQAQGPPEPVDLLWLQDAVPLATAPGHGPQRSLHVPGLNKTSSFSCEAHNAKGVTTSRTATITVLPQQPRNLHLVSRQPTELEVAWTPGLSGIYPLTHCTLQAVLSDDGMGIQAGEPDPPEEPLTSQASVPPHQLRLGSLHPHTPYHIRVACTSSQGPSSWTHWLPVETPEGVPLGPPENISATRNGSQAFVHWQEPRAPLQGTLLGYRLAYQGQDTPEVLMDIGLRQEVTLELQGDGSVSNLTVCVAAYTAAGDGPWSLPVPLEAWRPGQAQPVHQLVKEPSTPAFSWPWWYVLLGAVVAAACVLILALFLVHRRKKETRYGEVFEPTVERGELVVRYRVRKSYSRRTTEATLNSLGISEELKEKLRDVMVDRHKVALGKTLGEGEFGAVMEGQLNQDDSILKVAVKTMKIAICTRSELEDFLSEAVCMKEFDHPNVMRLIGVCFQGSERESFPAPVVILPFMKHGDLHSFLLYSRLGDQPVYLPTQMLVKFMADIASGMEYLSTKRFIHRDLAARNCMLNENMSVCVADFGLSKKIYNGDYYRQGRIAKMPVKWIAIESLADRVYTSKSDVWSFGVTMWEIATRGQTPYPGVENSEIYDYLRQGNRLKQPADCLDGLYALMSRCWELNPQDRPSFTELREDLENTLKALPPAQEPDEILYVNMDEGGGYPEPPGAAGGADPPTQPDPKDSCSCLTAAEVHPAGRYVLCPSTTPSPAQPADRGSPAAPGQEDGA
Experiment: Axl NanoBRET intracellular kinase assay (Cell Binding)
Set-up: host or cells: HEK-293
Conditions: HEK-293 cells transfected with Axl-NanoLuc fusion vector; displacement of K-5 NanoBRET tracer
Description: Axl NanoBRET™ intracellular kinase assay (Promega, N2540) was performed according to manufacturer's recommendation. In brief, HEK-293 cells are transiently transfected with Axl-NanoLuc fusion vector (Promega, NV1071), utilizing Fugene HD transfection reagent (Promega, E2311) a day before experiment following manufacturer's recommendation.
The day of the assay, the cells were collected and resuspended in Opti-MEM media (ThermoFisher, 31985070) at 2e5 cells/mL concentration. Testing compounds were serial diluted and dispensed into a white 384 well polystyrene plate at 200 nL in 100% DMSO. 40 μL of resuspended cells is then added per well for a final condition of 8K cells/well with 0.5% DMSO. After one-hour compound pre-incubation at 37° C. and 5% CO2, cells were further incubated with 0.35 μM K-5 NanoBRET tracer for two-hours at 37° C. and 5% CO2. […] of 3× substrate plus Inhibitor solution was prepared according to kits manual and added to the cells followed by a 30 second pulse centrifugation spin. The plate was then immediately read utilizing an Envision (Perkin Elmer) plate reader. The BRET signal is measured by taking the ratio of the emissions reading at 610 nm and 450 nm. Compound binding is based on the decrease BRET signal caused by the displacement of the K-5 tracer. […] IC50 value of compounds was determined by 4-parameter non-linear regression fitting of percent activity in GraphPad Prism software.

SMILES	IC50 [µM]
O=C1NCCOc2cc(-c3n[nH]c4ncc(-c5ccc6c(c5)CC(N5CCCC5)CC6)cc34)ccc21 (centres unmarked) [Example 3, 8-{5-[7-(Pyrrolidin-1-yl)-5,6,7,8-tetrahydronaphthalen-2-yl]-1H-pyrazolo[3,4-b]pyridin-3-yl}-2,3,4,5-tetrahydro-1,4-benzoxazepin-5-one]	0.1 to 1
O=C1NCCOc2cc(-c3n[nH]c4ncc(-c5ccc6c(c5)CN(C5CCCC5)CC6)cc34)ccc21 [Example 10, 8-(5-(2-Cyclopentyl-1,2,3,4-tetrahydroisoquinolin-7-yl)-1H-pyrazolo[3,4-b]pyridin-3-yl)-3,4-dihydrobenzo[f][1,4]oxazepin-5(2H)-one]	0.1 to 1
O=C1NCCOc2cc(-c3n[nH]c4ncc(-c5ccc6c(c5)CCN(C5COC5)CC6)cc34)ccc21 [Example 11, 8-(5-(3-(Oxetan-3-yl)-2,3,4,5-tetrahydro-1H-benzo[d]azepin-7-yl)-1H-pyrazolo[3,4-b]pyridin-3-yl)-3,4-dihydrobenzo[f][1,4]oxazepin-5(2H)-one]	0.1 to 1
O=C1NCCOc2cc(-c3n[nH]c4ncc(-c5ccc6c(c5)CCN(C5COC5)C6)cc34)ccc21 [Example 12, 8-(5-(2-(Oxetan-3-yl)-1,2,3,4-tetrahydroisoquinolin-6-yl)-1H-pyrazolo[3,4-b]pyridin-3-yl)-3,4-dihydrobenzo[f][1,4]oxazepin-5(2H)-one]	0.1 to 1
COCCN1CCc2cc(-c3cnc4[nH]nc(-c5ccc6c(c5)OCCNC6=O)c4c3)ccc2C1 [Example 13, 8-(5-(2-(2-Methoxyethyl)-1,2,3,4-tetrahydroisoquinolin-6-yl)-1H-pyrazolo[3,4-b]pyridin-3-yl)-3,4-dihydrobenzo[f][1,4]oxazepin-5(2H)-one]	0.1 to 1
CC(C)C(=O)N1CCc2ccc(-c3cnc4[nH]nc(-c5ccc6c(c5)OCCNC6=O)c4c3)cc2CC1 [Example 16, 8-{5-[3-(2-Methylpropanoyl)-2,3,4,5-tetrahydro-1H-3-benzazepin-7-yl]-1H-pyrazolo[3,4-b]pyridin-3-yl}-2,3,4,5-tetrahydro-1,4-benzoxazepin-5-one]	0.1 to 1
O=C1NCCOc2cc(-c3n[nH]c4ncc(-c5ccc6c(c5)CCN(C(=O)C5CC5)CC6)cc34)ccc21 [Example 17, 8-[5-(3-Cyclopropanecarbonyl-2,3,4,5-tetrahydro-1H-3-benzazepin-7-yl)-1H-pyrazolo[3,4-b]pyridin-3-yl]-2,3,4,5-tetrahydro-1,4-benzoxazepin-5-one]	0.1 to 1
CC(C)(O)C(=O)N1CCc2ccc(-c3cnc4[nH]nc(-c5ccc6c(c5)OCCNC6=O)c4c3)cc2CC1 [Example 19, 8-(5-(3-(2-Hydroxy-2-methylpropanoyl)-2,3,4,5-tetrahydro-1H-benzo[d]azepin-7-yl)-1H-pyrazolo[3,4-b]pyridin-3-yl)-3,4-dihydrobenzo[f][1,4]oxazepin-5(2H)-one]	0.1 to 1
O=C1NCCOc2cc(-c3n[nH]c4ncc(-c5ccc6c(c5)CCN(C5CC5)CC6)cc34)ccc21 [Example 20, 8-(5-(3-Cyclopropyl-2,3,4,5-tetrahydro-1H-benzo[d]azepin-7-yl)-1H-pyrazolo[3,4-b]pyridin-3-yl)-3,4-dihydrobenzo[f][1,4]oxazepin-5(2H)-one]	0.1 to 1
O=C1NCCOc2cc(-c3n[nH]c4ncc(-c5ccc6c(c5)CCN(C5CC5)C6)cc34)ccc21 [Example 21, 8-(5-(2-Cyclopropyl-1,2,3,4-tetrahydroisoquinolin-6-yl)-1H-pyrazolo[3,4-b]pyridin-3-yl)-3,4-dihydrobenzo[f][1,4]oxazepin-5(2H)-one]	0.1 to 1

More lines, now with the values ahead:

IC50 [µM]	SMILES
< 0.1	O=C1NCCOc2cc(-c3n[nH]c4ncc(-c5ccc6c(c5)CCC(N5CCCC5)CC6)cc34)ccc21 (racemic) [Example 1, 8-{5-[7-(Pyrrolidin-1-yl)-6,7,8,9-tetrahydro-5H-benzo[7]annulen-2-yl]-1H-pyrazolo[3,4-b]pyridin-3-yl}-2,3,4,5-tetrahydro-1,4-benzoxazepin-5-one]
< 0.1	O=C1NCCOc2cc(-c3n[nH]c4ncc(-c5ccc6c(c5)CC[C@H](N5CCCC5)CC6)cc34)ccc21 (single isomer, unassigned) [Example 56]
< 0.1	O=C1NCCOc2cc(-c3n[nH]c4ncc(-c5ccc6c(c5)CC[C@@H](N5CCCC5)CC6)cc34)ccc21 (single isomer, unassigned) [Example 57]
< 0.1	O=C1NCCOc2cc(-c3n[nH]c4ncc(-c5ccc6c(c5)CCC(N5CCCC5)C6)cc34)ccc21 (centres unmarked) [Example 2, 8-{5-[6-(Pyrrolidin-1-yl)-5,6,7,8-tetrahydronaphthalen-2-yl]-1H-pyrazolo[3,4-b]pyridin-3-yl}-2,3,4,5-tetrahydro-1,4-benzoxazepin-5-one]
< 0.1	O=C1NCCOc2cc(-c3n[nH]c4ncc(-c5ccc6c(c5)CCC(N[C@H]5CCOC5)C6)cc34)ccc21 (stereo partly drawn) [Example 4, 8-[5-(6-{[(3S)—Oxolan-3-yl]amino}-5,6,7,8-tetrahydronaphthalen-2-yl)-1H-pyrazolo[3,4-b]pyridin-3-yl]-2,3,4,5-tetrahydro-1,4-benzoxazepin-5-one]
< 0.1	O=C1NCCOc2cc(-c3n[nH]c4ncc(-c5ccc6c(c5)CCC(N[C@@H]5CCOC5)C6)cc34)ccc21 (stereo partly drawn) [Example 5, 8-[5-(6-{[(3R)—Oxolan-3-yl]amino}-5,6,7,8-tetrahydronaphthalen-2-yl)-1H-pyrazolo[3,4-b]pyridin-3-yl]-2,3,4,5-tetrahydro-1,4-benzoxazepin-5-one]
< 0.1	C[C@@H]1CCCN1C1CCc2ccc(-c3cnc4[nH]nc(-c5cc(F)c6c(c5)OCCNC6=O)c4c3)cc2CC1 (stereo partly drawn) [Example 6, 6-Fluoro-8-(5-{7-[(2R)-2-methylpyrrolidin-1-yl]-6,7,8,9-tetrahydro-5H-benzo[7]annulen-2-yl}-1H-pyrazolo[3,4-b]pyridin-3-yl)-2,3,4,5-tetrahydro-1,4-benzoxazepin-5-one]
< 0.1	O=C1NCCOc2cc(-c3n[nH]c4ncc(-c5ccc6c(c5)CCN(C5CCCC5)CC6)cc34)ccc21 [Example 7, 8-[5-(3-Cyclopentyl-2,3,4,5-tetrahydro-1H-3-benzazepin-7-yl)-1H-pyrazolo[3,4-b]pyridin-3-yl]-2,3,4,5-tetrahydro-1,4-benzoxazepin-5-one]
< 0.1	O=C1NCCOc2cc(-c3n[nH]c4ncc(-c5ccc6c(c5)CCN(C5CCCC5)C6)cc34)ccc21 [Example 9, 8-(5-(2-Cyclopentyl-1,2,3,4-tetrahydroisoquinolin-6-yl)-1H-pyrazolo[3,4-b]pyridin-3-yl)-3,4-dihydrobenzo[f][1,4]oxazepin-5(2H)-one]
< 0.1	COCCN1CCc2ccc(-c3cnc4[nH]nc(-c5ccc6c(c5)OCCNC6=O)c4c3)cc2CC1 [Example 15, 8-(5-(3-(2-Methoxyethyl)-2,3,4,5-tetrahydro-1H-benzo[d]azepin-7-yl)-1H-pyrazolo[3,4-b]pyridin-3-yl)-3,4-dihydrobenzo[f][1,4]oxazepin-5(2H)-one]
< 0.1	CC1(N2CCCC2)CCc2ccc(-c3cnc4[nH]nc(-c5ccc6c(c5)OCCNC6=O)c4c3)cc2CC1 (centres unmarked) [Example 22, 8-{5-[7-Methyl-7-(pyrrolidin-1-yl)-6,7,8,9-tetrahydro-5H-benzo[7]annulen-2-yl]-1H-pyrazolo[3,4-b]pyridin-3-yl}-2,3,4,5-tetrahydro-1,4-benzoxazepin-5-one]
< 0.1	C[C@@H]1CCCN1C1(C)CCc2ccc(-c3cnc4[nH]nc(-c5ccc6c(c5)OCCNC6=O)c4c3)cc2CC1 (stereo partly drawn) [Example 23, 8-(5-{7-Methyl-7-[(2R)-2-methylpyrrolidin-1-yl]-6,7,8,9-tetrahydro-5H-benzo[7]annulen-2-yl}-1H-pyrazolo[3,4-b]pyridin-3-yl)-2,3,4,5-tetrahydro-1,4-benzoxazepin-5-one]
< 0.1	C[C@H]1CCCN1C1(C)CCc2ccc(-c3cnc4[nH]nc(-c5ccc6c(c5)OCCNC6=O)c4c3)cc2CC1 (stereo partly drawn) [Example 24, 8-(5-{7-Methyl-7-[(2S)-2-methylpyrrolidin-1-yl]-6,7,8,9-tetrahydro-5H-benzo[7]annulen-2-yl}-1H-pyrazolo[3,4-b]pyridin-3-yl)-2,3,4,5-tetrahydro-1,4-benzoxazepin-5-one]
